Laboratory results as given in PubChem BioAssay (NCI).
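Where inhibition never reached the appropriate level, the endpoint shown equals the highest concentration tested. Otherwise, values were interpolated linearly from a five-concentration, 48-hour dose response in 96-well plates. The concentration for 50% growth inhibition is given as GI50. The concentration for full growth arrest is given as TGI.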

Tests used:
Experiment in all cases: NCI-60 cell line screen, 48 h
[1] = tested on: M14 melanoma
[2] = tested on: RXF 393 renal
[3] = tested on: SW-620 colon
[4] = tested on: EKVX NSCLC
[5] = tested on: U251 CNS
[6] = tested on: OVCAR-4 ovarian
[7] = tested on: RPMI-8226 leukemia
[8] = tested on: BT-549 breast
[9] = tested on: HL-60(TB) leukemia
[10] = tested on: UACC-62 melanoma
[11] = tested on: DU-145 prostate
[12] = tested on: HT29 colon
[13] = tested on: UACC-257 melanoma
[14] = tested on: SR leukemia
[15] = tested on: LOX IMVI melanoma
[16] = tested on: ACHN renal
[17] = tested on: KM12 colon
[18] = tested on: HCC-2998 colon
[19] = tested on: NCI-H23 lung
[20] = tested on: SN12C renal
[21] = tested on: OVCAR-5 ovarian
[22] = tested on: OVCAR-8 ovarian
[23] = tested on: HOP-92 NSCLC
[24] = tested on: A498 renal
[25] = tested on: MDA-N
[26] = tested on: COLO 205 colon
[27] = tested on: SK-OV-3 ovarian
[28] = tested on: NCI-H226 lung
[29] = tested on: PC-3 prostate
[30] = tested on: NCI-H460 lung
[31] = tested on: SNB-75 CNS
[32] = tested on: SK-MEL-2 melanoma
[33] = tested on: SK-MEL-5 melanoma
[34] = tested on: IGROV1 ovarian
[35] = tested on: CAKI-1 renal
[36] = tested on: K-562 leukemia
[37] = tested on: MALME-3M melanoma
[38] = tested on: SNB-19 CNS
[39] = tested on: MDA-MB-231 breast
[40] = tested on: OVCAR-3 ovarian
[41] = tested on: NCI/ADR-RES ovarian
[42] = tested on: T-47D breast
[43] = tested on: A549 NSCLC
[44] = tested on: SF-268 CNS
[45] = tested on: HOP-62 NSCLC
[46] = tested on: MDA-MB-435
[47] = tested on: TK-10 renal
[48] = tested on: SK-MEL-28 melanoma
[49] = tested on: CCRF-CEM leukemia
[50] = tested on: HS 578T breast
[51] = tested on: HCT-15 colon
[52] = tested on: MCF7 breast
[53] = tested on: HCT-116 colon
[54] = tested on: NCI-H522 lung
[55] = tested on: 786-0 renal
[56] = tested on: SF-295 CNS
[57] = tested on: SF-539 CNS
[58] = tested on: UO-31 renal
[59] = tested on: MOLT-4 leukemia

In the case of `Cc1ccc2[nH]c3c(c2c1)CCC/C3=N/N=C(N)N`, the TGI [1] is reported as 3.15 µM, the TGI [2] is reported as 3.95 µM and the TGI [3] is reported as over 100 µM. It also gave a TGI [4] of 6.78 µM, a TGI [5] of 4.72 µM and a TGI [6] of 11.4 µM. It also gave a TGI [7] of 5.12 µM, a TGI [8] of 41.1 µM and a TGI [9] of over 100 µM. It also gave a TGI [10] of 4.73 µM, a TGI [11] of 3.34 µM and a TGI [12] of 3.39 µM. It also gave a TGI [13] of 7.41 µM, a TGI [14] of 5.64 µM and a TGI [15] of 4.39 µM. The TGI [16] was 3.64 µM, the TGI [17] was 3.16 µM and the TGI [18] was 3.3 µM. For the same compound, the TGI [19] was 9.97 µM, the TGI [20] was 3.05 µM and the TGI [21] was 5.53 µM. It also gave a TGI [22] of 4.49 µM, a TGI [23] of 6.5 µM and a TGI [24] of 45.2 µM. The TGI [25] was 2.89 µM, the TGI [26] was 3.13 µM and the TGI [27] was 38.3 µM. It also gave a TGI [28] of 10.1 µM, a TGI [29] of 10.2 µM and a TGI [30] of 2.89 µM. The TGI [31] was 4.54 µM, the TGI [32] was 3.41 µM and the TGI [33] was 3.4 µM. It also gave a TGI [34] of 3.54 µM, a TGI [35] of 2.94 µM and a TGI [36] of 5 µM. It also gave a TGI [37] of 5.45 µM, a TGI [38] of 4.76 µM and a TGI [39] of 3.04 µM. It also gave a TGI [40] of 8.21 µM.

Work on `O=S(=O)(CCNCc1ccc(-c2ccc3ncnc(Nc4ccc(OCc5cccc(F)c5)c(Cl)c4)c3c2)o1)c1ccccc1` yielded a GI50 [41] of over 25 µM, a TGI [41] of over 25 µM and a GI50 [1] of over 25 µM. For the same compound, the TGI [1] was over 25 µM, the GI50 [2] was over 25 µM and the TGI [2] was over 25 µM. It also gave a GI50 [3] of over 25 µM, a TGI [3] of over 25 µM and a GI50 [42] of 2.21 µM. The TGI [42] was over 25 µM, the GI50 [43] was over 25 µM and the TGI [43] was over 25 µM. For the same compound, the GI50 [4] was 3.44 µM, the TGI [4] was over 25 µM and the GI50 [5] was over 25 µM. It also gave a TGI [5] of over 25 µM, a GI50 [44] of over 25 µM and a TGI [44] of over 25 µM. The GI50 [6] was over 25 µM, the TGI [6] was over 25 µM and the GI50 [45] was over 25 µM. For the same compound, the TGI [45] was over 25 µM, the GI50 [7] was over 25 µM and the TGI [7] was over 25 µM. It also gave a GI50 [8] of over 25 µM, a TGI [8] of over 25 µM and a GI50 [9] of over 25 µM. It also gave a TGI [9] of over 25 µM, a GI50 [10] of over 25 µM and a TGI [10] of over 25 µM. For the same compound, the GI50 [46] was over 25 µM, the TGI [46] was over 25 µM and the GI50 [11] was over 25 µM. It also gave a TGI [11] of over 25 µM, a GI50 [12] of over 25 µM and a TGI [12] of over 25 µM. The GI50 [13] was over 25 µM, the TGI [13] was over 25 µM and the GI50 [47] was over 13.2 µM. For the same compound, the TGI [47] was over 25 µM, the GI50 [14] was over 25 µM and the TGI [14] was over 25 µM. The GI50 [15] was over 25 µM, the TGI [15] was over 25 µM and the GI50 [16] was 18.9 µM. For the same compound, the TGI [16] was over 25 µM, the GI50 [17] was over 25 µM and the TGI [17] was over 25 µM. For the same compound, the GI50 [18] was over 25 µM, the TGI [18] was over 25 µM and the GI50 [19] was over 25 µM. It also gave a TGI [19] of over 25 µM, a GI50 [48] of over 25 µM and a TGI [48] of over 25 µM. The GI50 [20] was over 25 µM, the TGI [20] was over 25 µM and the GI50 [21] was over 25 µM. The TGI [21] was over 25 µM, the GI50 [22] was over 25 µM and the TGI [22] was over 25 µM. For the same compound, the GI50 [49] was over 23.1 µM, the TGI [49] was over 25 µM and the GI50 [23] was 14.9 µM. For the same compound, the TGI [23] was over 25 µM, the GI50 [24] was over 14.6 µM and the TGI [24] was over 25 µM. It also gave a GI50 [50] of over 25 µM, a TGI [50] of over 25 µM and a GI50 [51] of over 25 µM. For the same compound, the TGI [51] was over 25 µM, the GI50 [52] was over 25 µM and the TGI [52] was over 25 µM. The GI50 [26] was over 25 µM, the TGI [26] was over 25 µM and the GI50 [27] was 0.349 µM. The TGI [27] was over 25 µM, the GI50 [28] was over 25 µM and the TGI [28] was over 25 µM. It also gave a GI50 [53] of over 25 µM, a TGI [53] of over 25 µM and a GI50 [29] of over 25 µM. It also gave a TGI [29] of over 25 µM, a GI50 [30] of over 25 µM and a TGI [30] of over 25 µM. For the same compound, the GI50 [31] was over 25 µM, the TGI [31] was over 25 µM and the GI50 [32] was over 25 µM. It also gave a TGI [32] of over 25 µM, a GI50 [54] of over 19.5 µM and a TGI [54] of over 25 µM. It also gave a GI50 [55] of over 25 µM, a TGI [55] of over 25 µM and a GI50 [56] of over 25 µM. For the same compound, the TGI [56] was over 25 µM, the GI50 [33] was over 20.5 µM and the TGI [33] was over 25 µM. For the same compound, the GI50 [34] was over 23.6 µM, the TGI [34] was over 25 µM and the GI50 [35] was 6.05 µM. The TGI [35] was over 25 µM, the GI50 [36] was over 25 µM and the TGI [36] was over 25 µM. It also gave a GI50 [57] of over 25 µM, a TGI [57] of over 25 µM and a GI50 [37] of over 25 µM. For the same compound, the TGI [37] was over 25 µM, the GI50 [58] was 9.06 µM and the TGI [58] was over 25 µM. It also gave a GI50 [59] of over 25 µM, a TGI [59] of over 25 µM and a GI50 [38] of over 25 µM. For the same compound, the TGI [38] was over 25 µM, the GI50 [39] was over 25 µM and the TGI [39] was over 25 µM. For the same compound, the GI50 [40] was over 25 µM and the TGI [40] was over 25 µM.
